pIC50: −log10 of the molar value. Where a name gives a salt, the structure may show the parent alone. Read-outs that look alike come from different tables or passages of the source.
How the values were obtained:
Test in all cases: biochemical
MMP-1 = molecular target: T1, MMP-1 (Homo sapiens, UniProt P03956); conditions: read-out: MMP-1 IC50
T1 construct: made in house; host or cells: transfected HT-1080 cells (provided by Dr. Harold Welgus, Washington University)
T1 sequence (P03956 100-469): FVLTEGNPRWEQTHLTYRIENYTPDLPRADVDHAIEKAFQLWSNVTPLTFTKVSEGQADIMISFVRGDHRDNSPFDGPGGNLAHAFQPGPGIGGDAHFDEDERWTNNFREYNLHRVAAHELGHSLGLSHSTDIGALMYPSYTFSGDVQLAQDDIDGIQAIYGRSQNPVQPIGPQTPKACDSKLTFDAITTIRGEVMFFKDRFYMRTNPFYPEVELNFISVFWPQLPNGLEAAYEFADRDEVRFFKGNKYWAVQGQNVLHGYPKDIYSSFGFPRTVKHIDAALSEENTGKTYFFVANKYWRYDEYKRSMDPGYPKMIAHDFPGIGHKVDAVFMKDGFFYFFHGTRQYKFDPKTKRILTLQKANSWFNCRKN
Experimental: (§1) The compounds prepared in the manner described in the Examples above were assayed for activity by an in vitro assay. […] Briefly, 4-aminophenylmercuric acetate (APMA) or trypsin-activated MMPs were incubated with various concentrations of the inhibitor compound at room temperature for 5 minutes.
(§2) The expressed enzyme was purified first over a heparin agarose column and then over a chelating zinc chloride column. The proenzyme was activated by APMA for use in the assay.
(§3) MMP-1 expressed in transfected HT-1080 cells was provided by Dr. Harold Welgus of Washington University, St. Louis, Mo. The enzyme was also activated using APMA and was then purified over a hydroxamic acid column. Dr. Welgus also provided transfected HT-1080 cells that expressed MMP-9. Transfected cells that expressed MMP-2 were provided by Dr. Gregory Goldberg, also of Washington University. Studies with MMP-7 were carried out at pH 7.5 in the presence of 0.02% 2-mercaptoethanol using conditions otherwise similar to those used for the other enzymes. The enzyme was obtaind from a hMMP-7-expressing E. coli clone that was a gift of Dr. Steven Shapiro of Washington University, St. Louis, Mo. Further specifics for preparation and use of these enzymes can be found in the scientific literature describing these enzymes. See, for example, Enzyme Nomenclature, Academic Press, San Diego, Calif. […] The enzyme substrate is a methoxycoumarin-containing polypeptide having the following sequence:
(§4) MCA-ProLeuGlyLeuDpaAlaArgNH2, wherein MCA is methoxycoumarin and Dpa is 3-(2,4-dinitrophenyl)-L-2,3-diaminopropionyl alanine.
(§5) The buffer used for assays contained 100 mM Tris-HCl, 100 mM NaCl, 10 mM CaCl2 and 0.05 percent polyethyleneglycol (23) lauryl ether at a pH value of 7.5. Assays were carried out at room temperature, and dimethyl sulfoxide (DMSO) at a final concentration of 1 percent was used to dissolve inhibitor compound.
(§6) The assayed inhibitor compound in DMSO/buffer solution was compared to an equal amount of DMSO/buffer with no inhibitor as control using Microfluor White Plates (Dynatech). The inhibitor or control solution was maintained in the plate for 10 minutes and the substrate was added to provide a final concentration of 4 μM.
(§7) Inhibition was measured as a reduction in fluorescent intensity as a function of inhibitor concentration, using a Perkin Elmer L550 plate reader. The IC50 values were calculated from those values. The results are set forth in the Inhibition Table A, below, reported in terms of IC50 to three significant figures, where appropriate.

MMP-2 = molecular target: T2, MMP-2 (Homo sapiens, UniProt P08253); conditions: for pIC50: read-out: MMP-2 IC50
T2 construct: made in house; provided by Dr. Gregory Goldberg, Washington University
T2 sequence (P08253 110-660): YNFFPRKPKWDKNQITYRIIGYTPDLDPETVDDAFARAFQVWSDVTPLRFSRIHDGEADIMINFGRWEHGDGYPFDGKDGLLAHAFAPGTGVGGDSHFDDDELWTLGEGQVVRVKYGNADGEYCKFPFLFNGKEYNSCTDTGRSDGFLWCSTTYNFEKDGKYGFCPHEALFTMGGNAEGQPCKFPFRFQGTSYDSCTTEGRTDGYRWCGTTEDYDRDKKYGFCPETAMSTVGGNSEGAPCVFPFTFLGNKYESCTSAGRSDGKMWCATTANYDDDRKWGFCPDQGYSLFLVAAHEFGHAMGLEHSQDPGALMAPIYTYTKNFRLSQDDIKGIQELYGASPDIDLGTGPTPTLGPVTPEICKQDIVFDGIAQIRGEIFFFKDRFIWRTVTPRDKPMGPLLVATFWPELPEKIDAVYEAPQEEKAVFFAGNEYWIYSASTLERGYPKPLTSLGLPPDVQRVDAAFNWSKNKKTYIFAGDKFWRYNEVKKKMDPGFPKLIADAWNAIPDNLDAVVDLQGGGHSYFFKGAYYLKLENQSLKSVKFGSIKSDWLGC
Experimental: as §1, §2, §3, §4, §5, §6, §7

MMP-13 = molecular target: T3, MMP-13 (Homo sapiens, UniProt P45452); conditions: read-out: MMP-13 IC50
T3 construct: made in house; host or cells: baculovirus / insect cells
Experimental: as §1, §2, §3, §4, §5, §6, §7

[1] = recombinant human MMP-1, MCA peptide substrate 4 μM, pH 7.5, room temperature
[2] = recombinant human MMP-2, MCA peptide substrate 4 μM, pH 7.5, room temperature
[3] = recombinant human MMP-13, MCA peptide substrate 4 μM, pH 7.5, room temperature

| SMILES | pIC50 (MMP-1; [1]) | pIC50 (MMP-2; [2]) | pIC50 (MMP-13; [3]) | other results |
| --- | --- | --- | --- | --- |
| COc1ccc(S(=O)(=O)N2CCN(c3ccc(S(=O)(=O)C4(C(=O)NO)CCOCC4)cc3)CC2)cc1OC [Example 683] | < 5.00 | 6.54 | 7.95 | – |
| O=C(C1CCN(c2ccc(S(=O)(=O)C3(C(=O)NO)CCOCC3)cc2)CC1)N1CCN(c2ncc(C(F)(F)F)cc2Cl)CC1 [Example 41] | – | – | – | pIC50 (MMP-1): < 5.00; pIC50 (MMP-2): 5.27; pIC50 (MMP-13): 7.15 |
| CC1CN(c2ccc(S(=O)(=O)C3(C(=O)NO)CCOCC3)cc2)CCN1c1ccccc1 (centres unmarked) [Example 487] | < 5.00 | 6.10 | 6.85 | – |
| O=C(NO)C1(S(=O)(=O)c2ccc(Oc3ccc(C(F)(F)F)cc3)cc2)CCN(c2ncccc2[N+](=O)[O-])CC1 [Example 374] | < 5.00 | 8.40 | 8.48 | – |
| COCCNCC(=O)N1CCC(C(=O)NO)(S(=O)(=O)c2ccc(N3CCC(C(=O)N4CC(C)CC(C)C4)CC3)cc2)CC1 (centres unmarked) [Example 309] | < 5.00 | < 5.00 | 7.31 | – |
| O=C(c1ccc(OC(F)(F)F)cc1)N1CCN(c2ccc(S(=O)(=O)C3(C(=O)NO)CCOCC3)cc2)CC1 [Example 595] | < 5.00 | 6.37 | 6.57 | – |
| CC(C)N1CCC(C(=O)NO)(S(=O)(=O)c2ccc(Oc3ccc(OC(F)(F)F)cc3)cc2)CC1 [Example 453] | < 5.00 | 7.46 | 9.40 | – |
| O=C(NO)C1(S(=O)(=O)c2ccc(N3CCC(CCOCc4cccc(C(F)(F)F)c4)CC3)cc2)CCOCC1 [Example 503] | < 5.00 | 7.30 | 8.00 | – |
| N#Cc1ccccc1COC1CCN(c2ccc(S(=O)(=O)C3(C(=O)NO)CCOCC3)cc2)CC1 [Example 559] | < 5.00 | 7.10 | 8.14 | – |
| CC(=N)N1CCC(C(=O)NO)(S(=O)(=O)c2ccc(Oc3ccc(OC(F)(F)F)cc3)cc2)CC1 [Example 412] | 5.19 | 9.70 | 9.40 | – |
| O=C(NO)C1(S(=O)(=O)c2ccc(N3CCC(SC4CCCCC4)CC3)cc2)CCOCC1 [Example 634] | – | 7.22 | 8.36 | pIC50 (MMP-1): < 5.00 |
| O=C(NO)C1(S(=O)(=O)c2ccc(N3CCC(OCc4ccc(COCC(F)(F)C(F)(F)C(F)(F)F)cc4)CC3)cc2)CCOCC1 [Example 609] | < 5.00 | 5.55 | 7.51 | – |
| O=C(NO)C1(S(=O)(=O)c2ccc(N3CCCN(c4ccc(OC(F)(F)F)cc4)CC3)cc2)CCOCC1 [Example 708] | < 5.00 | 5.52 | 6.94 | – |
| COCCN1CCN(c2ccc(S(=O)(=O)C3(C(=O)NO)CCOCC3)cc2)CC1 [Example 645] | < 5.00 | 5.92 | 6.43 | – |
| O=C(NO)C1(S(=O)(=O)c2ccc(N3CCCCC3CCOCc3ccc(Cl)c(Cl)c3)cc2)CCOCC1 (centres unmarked) [Example 513] | < 5.00 | < 5.00 | 5.11 | – |
| C#CCN1CCC(C(=O)NO)(S(=O)(=O)c2ccc(Oc3ccc(OC(F)(F)F)cc3)cc2)CC1 [Example 349] | 5.59 | > 10.00 | 9.70 | – |
| O=C(CN1CCOCC1)N1CCC(C(=O)NO)(S(=O)(=O)c2ccc(Oc3ccc(C(F)(F)F)cc3)cc2)CC1 [Example 319] | < 5.00 | 9.70 | 9.30 | – |

| SMILES | pIC50 (MMP-1; [1]) | pIC50 (MMP-2; [2]) | pIC50 (MMP-13; [3]) | other results |
| --- | --- | --- | --- | --- |
| C[C@@H]1C[C@H](C)CN(C(=O)C2CCN(c3ccc(S(=O)(=O)C4(C(=O)NO)CCNCC4)cc3)CC2)C1 [Example 240, rel-4-[[4-[4-[[(3R,5S)-3,5-Dimethyl-1-piperidinyl]carbonyl]-1-piperidinyl]phenyl]sulfonyl]-N-hydroxy-4-piperidinecarboxamide, Monohydrochloride] | < 5.00 | – | 7.11 | – |
| O=C(NO)C1(S(=O)(=O)c2ccc(N3CCC(SCc4ccccc4Cl)CC3)cc2)CCN(C2CC2)CC1 [Example 461] | < 5.00 | – | – | – |
| O=C(NO)C1(S(=O)(=O)c2ccc(N3CCC(SCc4ccc(OC(F)(F)F)cc4)CC3)cc2)CCN(C2CC2)CC1 [Example 454] | < 5.00 | – | – | – |
| O=C(NO)C1(S(=O)(=O)c2ccc(N3CCC(SCc4ccc(OC(F)(F)F)cc4)CC3)cc2)CCNCC1 [Example 460] | < 5.00 | – | – | – |
| O=C(C1CCN(c2ccc(S(=O)(=O)C3(C(=O)NO)CCOCC3)cc2)CC1)N1CCN(c2ccccn2)CC1 [Example 26] | – | – | – | pIC50 (MMP-1): < 5.00; pIC50 (MMP-2): 5.44 |
| COc1ccc(C(=O)C2CCN(c3ccc(S(=O)(=O)C4(C(=O)NO)CCNCC4)cc3)CC2)cc1 [Example 437] | < 5.00 | – | – | – |
| CC1CC(C)CN(C(=O)C2CCN(c3ccc(S(=O)(=O)C4(C(=O)NO)CCN(C(=O)CN5CCN(CCN(C)C)CC5)CC4)cc3)CC2)C1 (centres unmarked) [Example 308] | < 5.00 | – | 7.40 | – |
| C[C@@H]1CN(C(=O)C2CCN(c3ccc(S(=O)(=O)C4(C(=O)NO)CCOCC4)cc3)CC2)C[C@H](C)N1 [Example 46] | – | – | – | pIC50 (MMP-1): < 5.00; IC50 (MMP-2; MMP-2 IC50 (nM)): 5700 nM |
| CN(C)CCN1CCN(C(=O)C2CCN(c3ccc(S(=O)(=O)C4(C(=O)NO)CCOCC4)cc3)CC2)CC1 [Example 23] | – | – | – | pIC50 (MMP-1): < 5.00; pIC50 (MMP-13): 7.05 |
| Cn1ccc2cc(C(=O)C3CCN(c4ccc(S(=O)(=O)C5(C(=O)NO)CCOCC5)cc4)CC3)ccc21 [Example 867] | < 5.00 | – | 7.78 | – |
| O=C(NO)C1(S(=O)(=O)c2ccc(N3CCC(SCc4ccccc4)CC3)cc2)CCN(C2CC2)CC1 [Example 417] | < 5.00 | – | 9.15 | – |
| CN(C)c1ccc(C(=O)C2CCN(c3ccc(S(=O)(=O)C4(C(=O)NO)CCOCC4)cc3)CC2)cc1 [Example 802] | < 5.00 | – | 8.64 | – |
| COc1ccc(C(=O)C2CCN(c3ccc(S(=O)(=O)C4(C(=O)NO)CCN(C(=O)c5ccco5)CC4)cc3)CC2)cc1 [Example 436] | < 5.00 | – | – | – |
| CC1CC(C)CN(C(=O)C2CCN(c3ccc(S(=O)(=O)C4(C(=O)NO)CCN(C(=O)CNCC(F)(F)F)CC4)cc3)CC2)C1 (centres unmarked) [Example 310] | < 5.00 | – | 7.22 | – |
| C[C@H]1C[C@H](C)CN(C(=O)C2CCN(c3ccc(S(=O)(=O)C4(C(=O)NO)CCNCC4)cc3)CC2)C1 (relative stereo) [Example 238, rel-4-[[4-[4-[[(3R,5R)-3,5-Dimethyl-1-piperidinyl]carbonyl]-1-piperidinyl]phenyl]sulfonyl]-N-hydroxy-4-piperidinecarboxamide, Monohydrochloride] | – | – | – | pIC50 (MMP-1): < 5.00; pIC50 (MMP-13): 7.10 |
| O=C(NO)C1(S(=O)(=O)c2ccc(N3CCC(SCc4cccc(C(F)(F)F)c4)CC3)cc2)CCN(C2CC2)CC1 [Example 463] | < 5.00 | – | – | – |
